Values of other authors in paper PMC139967 (BMC Biochemistry, 2002).

Tested on: calmodulin

Sequence: KAHKAATKIQASFRGHITRKKLKC [NM]
- effect of high ionic strength on calmodulin binding: reduced by high ionic strength
